Data reported in patent publication US20230392115A1, “METHODS FOR MAKING AND USING DIFFERENTIATED NEURAL CELLS” (Research Development Foundation, priority 2020, published 2023).

B1: Noggin: Noggin protein, BMP inhibitor, provided by Miltenyi Biotec (ref 130-103-456) (protein, UniProt Q13253 28-232, looked up)
Noggin: QHYLHIRPAPSDNLPLVDLIEHPDPIFDPKEKDLNETLLRSLLGGHYDPGFMATSPPEDRPGGGGGAAGGAEDLAELDQLLRQRPSGAMPSEIKGLEFSEGLAQGKKQRLSKKLRRKLQMWLWSQTFCPVLYAWNDLGSRFWPRYVKVGSCFSKRSCSVPEGMVCKPSKSVHLTVLRWRCQRRGGQRCGWIPIQYPIISECKCSC

Tests used:
[1] = tested on: human embryonic stem cell line HS420; assay: Q-RT-PCR of neuroectodermal markers (Pax-6, Sox-1, nestin) at day 8; assay type: cell-based
Experimental: FIG. 5: Quantification of neuroectodermal markers following exposition of HS420 cells one week with ALKi or dualSMAD inhibition. Results are expressed as the percentage of control condition (DMSO) in three independent experiments. The bars in each bar graph represent, from left to right, data from DMH-1, DMH-2, K02288, A8301, and LDN+SB.
(§1) Quantitative PCR was performed with Tecan Freedom Evo by using SYBR green fluorescence. cDNA was produced from RNA by using the prime script RT reagent kit (Takara). All primers were diluted at a concentration of 0.86 μM, and a master mix was used (Power SYBR Green Master Mix, Thermo Fisher Scientific).
Q-RT-PCR experiments were performed to provide a quantitative description of neural-inducing effects of the 4 compounds (in three independent experiments).

[2] = ATP-based cytotoxicity assay (Cmax allowing 100% viability); conditions: human, human embryonic pluripotent stem cell line HS420; HS420 cells; ATP quantification assay; read-out: Cmax (in vitro concentration allowing 100% of survival)
Description: Multiple combinations between Noggin, LDN193189 and SB431542 are commonly used and generally called “dualSMAD inhibition”. It represents to date the most widely used way to induce early neural specification of PSC in vitro. Described herein is the report of a differentiation approach that excludes “dual Smad inhibition,” and instead achieves differentiation through the use of 5 chemicals inhibiting ALK to induce neural specification of pluripotent stem cells in vitro: ML347, DMH1, DMH2, K02288 and A8301 (Table 1). Table 1 indicates their name, PubChem ID and toxicity on the human embryonic Pluripotent Stem Cell line (ePSC) HS420, by using an ATP-based cytotoxicity assay. The Cmax was defined as the maximal concentration in vitro allowing 100% of viability of cells.

[3] = tested on: human embryonic stem cell line HS420; assay: Morphology of embryonic stem cells after one week of exposure in neural induction medium; assay type: cell-based; conditions: 0.2 μM; for morphological modifications of embryonic stem cells: vs control (DMSO)
Experimental: (§2) For neural differentiation, HS420 cells at 50% of confluency were passaged in new laminin 521-coated tissue culture plates at the density of 10000 cells/cm^2 in Stemflex medium supplemented with ROCK inhibitor (Y27632, abcam) at 10 μM. After 24 h, cells were submitted to a medium change, the Stemflex being replaced by the following neural induction medium: Neurobasal (Thermofisher) supplemented with penicillin/streptomycin 100 U/ml (Invitrogen), B-27 supplement (Thermofisher), L-glutamine 2 mM (Thermofisher). Cells were passaged at day 8 and subsequent confluency (every weeks), by the use of Accutase (Thermofisher) and replated on polyornithine/Matrigel (Sigma)-coated tissue culture flasks at the density of 50 000/cm^2. • 3. Immunocytochemistry
(§3) To study the effects of ML347, DMH1, DMH2, K02288 and A8301 on PSC, the human embryonic stem cell line HS420 was used. Cells were plated at a low density on laminin 521 (10000/cm^2) in their maintenance medium (Stemflex) and exposed 24 h later to ML347, DMH1 or DMH2 or K02288 or A8301, during one week, at the concentration of 0.2 μM in a minimal medium suited for early neural induction. Once confluent (after 8 days), cells were passaged and plated in the same medium, without neural inductors, at the density of 50000/cm^2 polyornithine/Matrigel—coated tissue culture flasks for maturation (FIG. 2).

HS420 cells [4] = assay: Neuronal maturation after passage (nestin-, βIII-tubulin+ cells); assay type: cell-based, human; conditions: cells previously exposed to ALKi 0.2 μM, passaged at day 8, maturation
Experimental: FIG. 7: Neuronal maturation f HS420 cells (one month) exposed to ALKi versus dualSMAD inhibition.
as §2
At confluency (occurring in these conditions at day 8), cells were passaged at a very low density with Accutase and polyornithine/Matrigel-coated dished for neuronal maturation in appropriated medium. Neuronal cells (nestin− and βIII-tubulin+ cells with a neuritic morphology) were present in cells previously exposed to the four compounds, in contrast to control conditions from which cells reduced progressively their number, with only few neuronal cells in the plate (FIG. 7).

HS420 cells [5] = assay: Q-RT-PCR of regionalization markers (Otx-2, Lmxla, FoxA2, FoxG1, Msx-1) at day 8; assay type: cell-based, human; conditions: 0.2 uM, day 8, normalized to vehicle
Experimental: FIG. 6: HS420 cells were exposed for 8 days to dual SMAD inhibition or ALK inhibitors at the concentration of 0.2 μM. Regionalization markers were measured by Q-RT-PCR and normalized with control conditions (no compounds, vehicle alone).
as §1
A possible impact of ALK inhibitors on early neural specification was analysed after 8 days of differentiation and compared with dual SMAD inhibition. Several markers of early specification, focusing on forebrain/midbrain regionalization were measured by Q-RT-PCR at day 8 in neural induction medium. The following markers were tested: Otx-2 which is an anterior marker (forebrain and midbrain), Lmxla which is expressed in dorsal and ventral midbrain, FoxA2 which is a ventral marker in forebrain, midbrain and hindbrain. Was also tested the forebrain FoxG1 and Msx-1 which is more specific for early dopaminergic differentiation. Several experiments were performed (n=3) and values were normalized as the percentage of control (=no compound, vehicle lone). At this early stage (day 8), FoxA2 and Msx-1 were not detected by PCR in all conditions, showing the absence of acquisition of a ventral and dopaminergic identity. […] The Hindbrain marker HoxA2 was not detected at this stage (not shown), showing the absence of a hindbrain identity (not shown). […] DMH1 and DMH2 reduce the forebrain identity, a useful prerequisite for dopaminergic specification.

[6] = tested on: human embryonic stem cell line HS420; assay: Immunofluorescent staining for nestin, Pax-6, Sox-1 at day 8; assay type: cell-based; conditions: 0.2 μM
Experimental: Cells on glass coverslips were fixed with 1 mL of 0.5% paraformaldehyde in PBS for 30 minutes at room temperature. Cells were then washed three times with 1 mL of PBS and incubated overnight with primary antibodies in PBS containing 0.1% Triton X-100 (Sigma), and 1% bovine serumalbumine (Sigma). Cells were washed three times with 1 mL of PBS before incubation for 1 h30 min with the secondary antibody in PBS containing 0.1% Triton X-100 and 1% bovine serumalbumine. Cells were washed three times with PBS before exposure to DAPI 300 nM in PBS (Sigma) for 15 minutes at room temperature. After three washes in PBS, cells were rinsed with water and mounted in glass slides using Fluorsave reagent (Merck Millipore). • 4. Quantitative RT PCR
as §3, with “2). […]” for “2).”

Molecule	Cmax [2] [µM]	morphological modifications of embryonic stem cells [3]	neural induction with generation of cells able to mature into neurons (HS420 cells [4])	FoxG1 expression (forebrain specification) (HS420 cells [5])	also measured
c1ccc2c(-c3cnn4cc(-c5ccc(N6CCNCC6)cc5)cnc34)ccnc2c1 [LDN193189]	–	–	–	–	expression of Pax-6, Sox-1 and nestin mRNAs compared to control ([1]; 0.5 μM): increased the expression of Pax-6, Sox-1 and nestin mRNAs
NC(=O)c1ccc(-c2nc(-c3ccc4c(c3)OCO4)c(-c3ccccn3)[nH]2)cc1 [SB431542, 4-(4-(Benzo[d][1,3]dioxol-5-yl)-5-(pyridin-2-yl)-1H-imidazol-2-yl)benzamide]	–	–	–	–	Sox-1 mRNA ([1]; alone at 10 μM): moderate increase; expression of the three markers (Pax-6, Sox-1, nestin mRNAs) ([1]; alone at 10 μM): did not increase the three markers
COc1ccc(-c2cnc3c(-c4cccc5ncccc45)cnn3c2)cc1 [ML347, 5-[6-(4 Methoxyphenyl)pyrazolo[1,5-a]pyrimidin-3-yl]quinoline]	0.58 ± 0.2	–	–	–	–
CC(C)Oc1ccc(-c2cnc3c(-c4ccnc5ccccc45)cnn3c2)cc1 [DMH1, 4-[6-(4-Propan-2-yloxyphenyl)pyrazolo[1,5-a]pyrimidin-3-yl]quinoline]	0.97 ± 0.46	showed morphological modifications	favoured neural induction with the generation of cells able to be further maturated into neurons	reduced FoxG1 expression	–
COc1cc(-c2cc(-c3cccc(O)c3)cnc2N)cc(OC)c1OC [K02288, 3-[6-Amino-5-(3,4,5-Trimethoxyphenyl)pyridin-3-Yl]phenol]	0.53 ± 0.25	showed morphological modifications	favoured neural induction with the generation of cells able to be further maturated into neurons	–	epithelial-like cells spreading between the colonies [3]: invaded as a monolayer the free tissue culture plate between the colonies; expression of nestin, Pax-6 and Sox-1 by immunofluorescent staining [6]: homogeneously expressed nestin, Pax-6 and Sox-1
c1ccc2c(-c3cnn4cc(-c5ccc(OCCN6CCOCC6)cc5)cnc34)ccnc2c1 [DMH2, 4-(2-(4-(3-(Quinolin-4-yl)pyrazolo[1,5-a]pyrimidin-6-yl)phenoxy)ethyl)morpholine]	0.58 ± 0.2	showed morphological modifications	favoured neural induction with the generation of cells able to be further maturated into neurons	reduced FoxG1 expression	–
Cc1cccc(-c2nn(C(=S)Nc3ccccc3)cc2-c2ccnc3ccccc23)n1 [A8301, 3-(6-Methylpyridin-2-yl)-N-phenyl-4-(quinolin-4-yl)-1H-pyrazole-1-carbothioamide]	5.18 ± 1.78	showed morphological modifications	favoured neural induction with the generation of cells able to be further maturated into neurons	upregulation of FoxG1	epithelial-like cells spreading between the colonies [3]: invaded as a monolayer the free tissue culture plate between the colonies; expression of nestin, Pax-6 and Sox-1 by immunofluorescent staining [6]: homogeneously expressed nestin, Pax-6 and Sox-1
B1	–	–	–	–	effect on neuroectodermal marker mRNAs ([1]; alone at 100 ng/ml): moderate effect
